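How tested: cells in 96-well plates exposed to compound for 48 hours at five concentrations. TGI: total growth inhibition.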
Key:
Test in all cases: inhibition of tumour cell growth, NCI panel, 48 h
MCF7 breast = system: MCF7 breast
KM12 colon = system: KM12 colon
COLO 205 colon = system: COLO 205 colon
DU-145 prostate = system: DU-145 prostate
OVCAR-8 ovarian = system: OVCAR-8 ovarian
UACC-62 melanoma = system: UACC-62 melanoma
HCT-15 colon = system: HCT-15 colon
CAKI-1 renal = system: CAKI-1 renal
NCI/ADR-RES ovarian = system: NCI/ADR-RES ovarian
CCRF-CEM leukemia = system: CCRF-CEM leukemia
EKVX NSCLC = system: EKVX NSCLC
HS 578T breast = system: HS 578T breast
IGROV1 ovarian = system: IGROV1 ovarian
ACHN renal = system: ACHN renal
OVCAR-5 ovarian = system: OVCAR-5 ovarian
SK-MEL-28 melanoma = system: SK-MEL-28 melanoma
MDA-MB-435 = system: MDA-MB-435
SF-539 CNS = system: SF-539 CNS
NCI-H226 lung = system: NCI-H226 lung
LOX IMVI melanoma = system: LOX IMVI melanoma

Row | SMILES | TGI (MCF7 breast) [µM] | TGI (KM12 colon) [µM] | TGI (COLO 205 colon) [µM] | TGI (DU-145 prostate) [µM] | TGI (OVCAR-8 ovarian) [µM] | TGI (UACC-62 melanoma) [µM] | TGI (HCT-15 colon) [µM] | TGI (CAKI-1 renal) [µM] | TGI (NCI/ADR-RES ovarian) [µM] | TGI (CCRF-CEM leukemia) [µM] | TGI (EKVX NSCLC) [µM] | TGI (HS 578T breast) [µM] | TGI (IGROV1 ovarian) [µM] | TGI (ACHN renal) [µM] | TGI (OVCAR-5 ovarian) [µM] | TGI (SK-MEL-28 melanoma) [µM] | TGI (MDA-MB-435) [µM] | TGI (SF-539 CNS) [µM] | TGI (NCI-H226 lung) [µM] | TGI (LOX IMVI melanoma) [µM]
1 | C=C1C(=O)O[C@H]2C1C[C@H](O)[C@@]1(C)OC1CC[C@@]1(C)O[C@H]21 (some centres not stated) | 29.5 | 55.1 | 16.9 | > 100 | 39.6 | 28.2 | 40.3 | 33.5 | 44 | 8.68 | 38.4 | > 100 | 31 | 34.2 | 31.5 | 35.9 | 53.2 | – | – | –
2 | CCCc1nc2c(n1CC)C(=O)c1ccccc1C2=O | > 100 | > 100 | > 100 | > 100 | – | > 100 | 98 | – | 78.7 | > 100 | – | > 100 | > 100 | > 100 | > 100 | > 100 | 32.3 | > 100 | > 100 | –
3 | CC(Oc1ccc(Cl)cc1Cl)C(=O)NN1C(=O)CC(=O)N(c2ccccc2)C1=S (configuration not stated) | > 100 | > 100 | > 100 | > 100 | > 100 | > 100 | > 100 | > 100 | > 100 | – | > 100 | > 100 | > 100 | > 100 | > 100 | > 100 | > 100 | > 100 | > 100 | > 100
4 | Nc1ccccc1C(=O)N=Nc1c(O)[nH]c2ccccc12 | > 100 | > 100 | > 100 | > 100 | > 100 | > 100 | > 100 | > 100 | > 100 | > 100 | > 100 | 73.8 | > 100 | > 100 | > 100 | – | > 100 | > 100 | > 100 | –
5 | Cc1ccc(S(=O)(=O)N/N=C2/CCC3(O)CC2(C)CCC2[C@H]3CC2(C)C)cc1 (some centres not stated) | > 100 | > 100 | 33.1 | > 100 | > 100 | 60 | > 100 | > 100 | > 100 | 86.1 | > 100 | > 100 | 74.3 | > 100 | 78.1 | 61.2 | 57.7 | – | 70.9 | 28.6
6 | CCSC1=N/C(=C\c2ccco2)C(=O)N1 | > 100 | > 100 | > 100 | > 100 | > 100 | > 100 | > 100 | – | > 100 | > 100 | > 100 | > 100 | > 100 | > 100 | > 100 | > 100 | > 100 | – | > 100 | > 100
7 | NC(=O)[N+](=CC(=S)Nc1ccccc1Cl)C(N)=O | > 100 | > 100 | > 100 | > 100 | > 100 | > 100 | > 100 | > 100 | > 100 | > 100 | > 100 | > 100 | > 100 | > 100 | > 100 | – | > 100 | > 100 | > 100 | > 100
8 | Cc1ccc(-c2cn3c(nc4ccccc43)c(/C=C/c3ccco3)n2)cc1 | > 100 | > 100 | > 100 | > 100 | – | > 100 | > 100 | – | > 100 | – | – | 84.2 | > 100 | > 100 | > 100 | > 100 | > 100 | > 100 | > 100 | > 100
9 | Cc1ccc2nc(NS(=O)(=O)c3cc(C)c(Cl)cc3S)[nH]c2c1 | > 100 | > 100 | > 100 | > 100 | > 100 | > 100 | > 100 | > 100 | > 100 | 69.8 | > 100 | > 100 | > 100 | > 100 | > 100 | > 100 | > 100 | > 100 | – | 73.2
10 | O=C1CSC(c2ccccc2O)N1c1ccc(-n2c(-c3ccccc3)nc3ccccc3c2=O)cc1 (configuration not stated) | > 100 | 97.7 | > 100 | > 100 | > 100 | 90.3 | 60.1 | > 100 | 72.6 | > 100 | – | > 100 | 93.9 | 83.6 | > 100 | > 100 | 81.5 | 58.9 | 97.5 | 69
11 | Cc1c(-c2ccccc2)[nH]c2cn[nH]c(=O)c12 | > 100 | > 100 | > 100 | > 100 | > 100 | > 100 | > 100 | > 100 | > 100 | > 100 | > 100 | > 100 | > 100 | > 100 | > 100 | > 100 | > 100 | > 100 | – | > 100
12 | CCOC(=O)c1nc2ccc(C(F)(F)F)cc2nc1Nc1ccc(OC)cc1 | > 100 | > 100 | > 100 | > 100 | > 100 | > 100 | > 100 | – | > 100 | > 100 | > 100 | > 100 | > 100 | > 100 | > 100 | > 100 | > 100 | 90.1 | > 100 | > 100
13 | O=C(Cc1nc2ccccc2[nH]c1=O)c1c[nH]c2ccccc12 | > 100 | 58 | 28.9 | > 100 | 45.9 | 29 | > 100 | 63.4 | 28.5 | > 100 | > 100 | > 100 | > 100 | 22.3 | 57.1 | – | > 100 | 35.2 | 31.3 | > 100

Source: PubChem BioAssay (NCI)
